Test results as given in patent US20230072421A1, “TARGETED RADIOPHARMACEUTICALS FOR THE DIAGNOSIS AND TREATMENT OF PROSTATE CANCER” (Bayer AS, priority 2019, published 2023).

Molecular target: T1, PSMA-expressing LNCaP cells (Homo sapiens, UniProt Q04609)
T1 construct: PSMA-expressing LNCaP cells; endogenous in cells; host or cells: LNCaP
Assay: Binding competition assay against 3H-PSMA-617 on LNCaP cells
Conditions: for competition against 3H-PSMA-617 on PSMA-expressing LNCaP cells (in words): comparison between examples
Method in brief: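 Compounds added to LNCaP cells in growth medium, 2 h at 37 °C, 5% CO2. After two ice-cold PBS washes, cells lysed in 0.3 M NaOH and bound radioactivity measured by liquid scintillation counting.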

[1] = LNCaP cells, 10 nM 3H-PSMA-617, competing non-radiolabeled compound 10 nM, 2 h at 37° C., triplicates
[2] = LNCaP cells, 10 nM 3H-PSMA-617, competing non-radiolabeled compound 100 nM, 2 h at 37° C., triplicates

T1 sequence (Q04609 whole entry): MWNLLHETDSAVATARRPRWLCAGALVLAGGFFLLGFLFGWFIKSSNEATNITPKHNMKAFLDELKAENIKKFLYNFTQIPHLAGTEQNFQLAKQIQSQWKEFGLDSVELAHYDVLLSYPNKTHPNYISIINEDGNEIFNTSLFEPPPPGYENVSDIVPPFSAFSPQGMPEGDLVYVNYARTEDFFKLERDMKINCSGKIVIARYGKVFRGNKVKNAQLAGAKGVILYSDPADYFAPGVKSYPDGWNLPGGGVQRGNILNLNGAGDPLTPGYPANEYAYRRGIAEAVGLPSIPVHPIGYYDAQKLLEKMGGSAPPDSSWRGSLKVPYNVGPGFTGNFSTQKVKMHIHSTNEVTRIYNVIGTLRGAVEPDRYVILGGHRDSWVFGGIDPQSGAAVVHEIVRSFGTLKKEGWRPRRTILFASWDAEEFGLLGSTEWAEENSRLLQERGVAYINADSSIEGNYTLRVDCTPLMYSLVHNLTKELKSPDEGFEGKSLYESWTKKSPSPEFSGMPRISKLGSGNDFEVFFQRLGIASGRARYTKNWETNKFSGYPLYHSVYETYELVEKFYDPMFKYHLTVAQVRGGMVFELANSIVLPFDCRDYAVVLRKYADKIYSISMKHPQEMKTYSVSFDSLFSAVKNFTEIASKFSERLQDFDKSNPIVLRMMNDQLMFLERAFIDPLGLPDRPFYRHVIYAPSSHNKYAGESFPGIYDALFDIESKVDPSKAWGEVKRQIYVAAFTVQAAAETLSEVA

| SMILES | remaining activity at 0.01 µM [1] | remaining activity at 0.1 µM [2] | competition against 3H-PSMA-617 on PSMA-expressing LNCaP cells (in words) | % remaining 3H-PSMA-617 @ 10 nM (mean) [1] | % remaining 3H-PSMA-617 @ 100 nM (mean) [2] |
| --- | --- | --- | --- | --- | --- |
| O=C(O)CC[C@H](NC(=O)N[C@@H](CCCCNC(=O)[C@H](Cc1ccc2ccccc2c1)NC(=O)c1ccc(CNC(=O)CN2CCN(CC(=O)O)CCN(CC(=O)O)CCN(CC(=O)O)CC2)cn1)C(=O)O)C(=O)O [Example 25-B, (3S,10S,14S)-3-[(naphthalen-2-yl)methyl]-1,4,12-trioxo-1-[5-({2-[4,7,10-tris(carboxymethyl)-1,4,7,10-tetraazacyclododecan-1-yl]acetamido}methyl)pyridin-2-yl]-2,5,11,13-tetraazahexadecane-10,14,16-tricarboxylic acid] | 54% | 5% | improved competition in comparison to the cyclohexyl examples 1-A and 1-B | – | – |
| O=C(O)CC[C@H](NC(=O)N[C@@H](CCCCNC(=O)[C@H](Cc1ccc2ccccc2c1)NC(=O)c1cccc(CNC(=O)CN2CCN(CC(=O)O)CCN(CC(=O)O)CCN(CC(=O)O)CC2)c1)C(=O)O)C(=O)O [Example 27-B, (3S,10S,14S)-3-[(naphthalen-2-yl)methyl]-1,4,12-trioxo-1-[3-({2-[4,7,10-tris(carboxymethyl)-1,4,7,10-tetraazacyclododecan-1-yl]acetamido}methyl)phenyl]-2,5,11,13-tetraazahexadecane-10,14,16-tricarboxylic acid] | 54% | 6% | – | – | – |
| NCc1cccc(C(=O)N[C@@H](Cc2ccc3ccccc3c2)C(=O)NCCCC[C@H](NC(=O)N[C@@H](CCC(=O)O)C(=O)O)C(=O)O)c1 [Example 27-A, (3S,10S,14S)-1-[3-(aminomethyl)phenyl]-3-[(naphthalen-2-yl)methyl]-1,4,12-trioxo-2,5,11,13-tetraazahexadecane-10,14,16-tricarboxylic acid] | 27% | 7% | – | – | – |
| Cc1cc(C(=O)NCCN(CCCN(CCNC(=O)c2cc(C)n(CC(=O)O)c(=O)c2O)CCNC(=O)c2cc(C)n(CC(=O)NCc3ccc(C(=O)N[C@@H](Cc4ccc5ccccc5n4)C(=O)NCCCC[C@H](NC(=O)N[C@@H](CCC(=O)O)C(=O)O)C(=O)O)nc3)c(=O)c2O)CCNC(=O)c2cc(C)n(CC(=O)O)c(=O)c2O)c(O)c(=O)n1CC(=O)O [34-C monomer] | 58% | 10% | – | – | – |
| NCc1ccc(C(=O)N[C@@H](Cc2ccc3ccccc3c2)C(=O)NCCCC[C@H](NC(=O)N[C@@H](CCC(=O)O)C(=O)O)C(=O)O)nc1 [Example 25-A, (3S,10S,14S)-1-[5-(aminomethyl)pyridin-2-yl]-3-[(naphthalen-2-yl)methyl]-1,4,12-trioxo-2,5,11,13-tetraazahexadecane-10,14,16-tricarboxylic acid] | 93% | 21% | improved competition in comparison to the cyclohexyl examples 1-A and 1-B | – | – |
| O=C(O)CC[C@H](NC(=O)N[C@@H](CCCCNC(=O)[C@H](Cc1ccc2ccccc2n1)NC(=O)[C@H]1CC[C@H](CNC(=O)CN2CCN(CC(=O)O)CCN(CC(=O)O)CCN(CC(=O)O)CC2)CC1)C(=O)O)C(=O)O [Example 17-B, N^6-{3-(quinolin-2-yl)-N-[(1r,4S)-4-({2-[4,7,10-tris(carboxymethyl)-1,4,7,10-tetraazacyclododecan-1-yl]acetamido}methyl)cyclohexane-1-carbonyl]-L-alanyl}-N^2-{[(1S)-1,3-dicarboxypropyl]carbamoyl}-L-lysine] | 55% | 12% | best competition amongst all quinoline isomer examples | – | – |
| Nc1ccc(CC(=O)N[C@@H](Cc2ccc3ccccc3c2)C(=O)NCCCC[C@H](NC(=O)N[C@@H](CCC(=O)O)C(=O)O)C(=O)O)cc1 [Example 23-A, (4S,11S,15S)-1-(4-aminophenyl)-4-[(naphthalen-2-yl)methyl]-2,5,13-trioxo-3,6,12,14-tetraazaheptadecane-11,15,17-tricarboxylic acid] | 59% | 26% | – | – | – |
| O=C(O)CC[C@H](NC(=O)N[C@@H](CCCCNC(=O)[C@H](Cc1ccc2ccccc2c1)NC(=O)Cn1ccc(-c2ccc(NC(=O)CN3CCN(CC(=O)O)CCN(CC(=O)O)CCN(CC(=O)O)CC3)cc2)n1)C(=O)O)C(=O)O [Example 28-B, (4S,11S,15S)-4-[(naphthalen-2-yl)methyl]-2,5,13-trioxo-1-[3-(4-{2-[4,7,10-tris(carboxymethyl)-1,4,7,10-tetraazacyclododecan-1-yl]acetamido}phenyl)-1H-pyrazol-1-yl]-3,6,12,14-tetraazaheptadecane-11,15,17-tricarboxylic acid] | 33% | 90% | – | – | – |
| O=C(O)CC[C@H](NC(=O)N[C@@H](CCCCNC(=O)[C@H](Cc1ccc2ccccc2n1)NC(=O)C1CCC(CNC(=O)C[N+]23CC[N+]45CCN6CC[N+]7(CC2)CC(=O)[OH+][Th]347([O]C(=O)C6)[O]C(=O)C5)CC1)C(=O)O)C(=O)O (some centres unmarked) [Example 17-B-232Th] | – | – | – | 46% | 10% |
| N[C@H]1CC[C@H](CNC(=O)N[C@@H](Cc2ccc3ccccc3c2)C(=O)NCCCC[C@H](NC(=O)N[C@@H](CCC(=O)O)C(=O)O)C(=O)O)CC1 [Example 40-A, (5S,12S,16S)-1-[(1r,4S)-4-aminocyclohexyl]-5-[(naphthalen-2-yl)methyl]-3,6,14-trioxo-2,4,7,13,15-pentaazaoctadecane-12,16,18-tricarboxylic acid] | 87% | 62% | – | – | – |
| NC[C@H]1CC[C@H](C(=O)N[C@@H](CCCCNC(N)=O)C(=O)NCCCC[C@H](NC(=O)N[C@@H](CCC(=O)O)C(=O)O)C(=O)O)CC1 [Example 5-A, N^6—{N^2-[(1r,4S)-4-(aminomethyl)cyclohexane-1-carbonyl]-N^6-carbamoyl-L-lysyl}-N^2-{[(1S)-1,3-dicarboxypropyl]carbamoyl}-L-lysine] | 109% | 112% | – | – | – |
| NCC1CCC(C(=O)N[C@@H](CCCNC(N)=O)C(=O)NCCCC[C@H](NC(=O)N[C@@H](CCC(=O)O)C(=O)O)C(=O)O)CC1 (stereo partly drawn) [Example 4-A, N^6—{N^2-[(1r,4S)-4-(aminomethyl)cyclohexane-1-carbonyl]-N^5-carbamoyl-L-ornithyl}-N^2-{[(1S)-1,3-dicarboxypropyl]carbamoyl}-L-lysine] | 106% | 112% | – | – | – |

Now from value to compound, other results behind:

| remaining activity at 0.01 µM [1] | remaining activity at 0.1 µM [2] | SMILES | competition against 3H-PSMA-617 on PSMA-expressing LNCaP cells (in words) | % remaining 3H-PSMA-617 @ 10 nM (mean) [1] | % remaining 3H-PSMA-617 @ 100 nM (mean) [2] |
| --- | --- | --- | --- | --- | --- |
| 91% | 60% | NC[C@H]1CC[C@H](C(=O)N[C@@H](Cc2cccc(F)c2)C(=O)NCCCC[C@H](NC(=O)N[C@@H](CCC(=O)O)C(=O)O)C(=O)O)CC1 [Example 10-A, N^6—{N-[(1r,4S)-4-(aminomethyl)cyclohexane-1-carbonyl]-3-fluoro-L-phenylalanyl}-N^2-{[(1S)-1,3-dicarboxypropyl]carbamoyl}-L-lysine] | – | – | – |
| 106% | 93% | NC[C@H]1CC[C@H](C(=O)N[C@@H](Cc2ccc(F)cc2)C(=O)NCCCC[C@H](NC(=O)N[C@@H](CCC(=O)O)C(=O)O)C(=O)O)CC1 [Example 7-A, N^6—{N-[(1r,4S)-4-(aminomethyl)cyclohexane-1-carbonyl]-4-fluoro-L-phenylalanyl}-N^2-{[(1S)-1,3-dicarboxypropyl]carbamoyl}-L-lysine] | – | – | – |
| 98% | 86% | NC[C@H]1CC[C@H](C(=O)N[C@@H](Cc2cc(F)c(F)c(F)c2)C(=O)NCCCC[C@H](NC(=O)N[C@@H](CCC(=O)O)C(=O)O)C(=O)O)CC1 [Example 6-A, N^6—{N-[(1r,4S)-4-(aminomethyl)cyclohexane-1-carbonyl]-3,4,5-trifluoro-L-phenylalanyl}-N^2-{[(1S)-1,3-dicarboxypropyl]carbamoyl}-L-lysine] | – | – | – |
| 140% | 106% | NC[C@H]1CC[C@H](C(=O)N[C@H](Cc2ccc3c(c2)CCCO3)C(=O)NCCCC[C@H](NC(=O)N[C@@H](CCC(=O)O)C(=O)O)C(=O)O)CC1 [Example 38-A, N^6—{N-[(1r,4S)-4-(aminomethyl)cyclohexane-1-carbonyl]-3-(3,4-dihydro-2H-1-benzopyran-6-yl)-D-alanyl}-N^2-{[(1S)-1,3-dicarboxypropyl]carbamoyl}-L-lysine] | – | – | – |
| 90% | 45% | NC[C@H]1CC[C@H](C(=O)NC(Cc2ccc3ccccc3c2)C(=O)NCCCC[C@H](NC(=O)N[C@@H](CCC(=O)O)C(=O)O)C(=O)O)CC1 (stereo partly drawn) [Example 1-A, (3S,10S,14S)-1-[(1r,4S)-4-(aminomethyl)cyclohexyl]-3-[(naphthalen-2-yl)methyl]-1,4,12-trioxo-2,5,11,13-tetraazahexadecane-10,14,16-tricarboxylic acid] | – | – | – |
| 113% | 40% | NC[C@H]1CC[C@H](C(=O)N[C@@H](Cc2cnc3ccccc3c2)C(=O)NCCCC[C@H](NC(=O)N[C@@H](CCC(=O)O)C(=O)O)C(=O)O)CC1 [Example 22-A, N^6—{N-[(1r,4S)-4-(aminomethyl)cyclohexane-1-carbonyl]-3-(quinolin-3-yl)-L-alanyl}-N^2-{[(1S)-1,3-dicarboxypropyl]carbamoyl}-L-lysine] | – | – | – |
| 82% | 61% | NC[C@H]1CC[C@H](C(=O)N[C@H](Cc2csc3ccc(Cl)cc23)C(=O)NCCCC[C@H](NC(=O)N[C@@H](CCC(=O)O)C(=O)O)C(=O)O)CC1 [Example 41-A, N^6—{N-[(1r,4S)-4-(aminomethyl)cyclohexane-1-carbonyl]-3-(5-chloro-1-benzothiophen-3-yl)-D-alanyl}-N^2-{[(1S)-1,3-dicarboxypropyl]carbamoyl}-L-lysine] | – | – | – |
